The values that follow come from US20200088732A1, “METHODS FOR THE DIAGNOSIS AND TREATMENT OF PANCREATIC DUCTAL ADENOCARCINOMA” (INSERM (Institut National de la Santé et de la Recherche …, priority 2017, published 2020).

Structures are written as SMILES.

Format in all cases: cell-based
In experiment [1] the test system is Mouse pancreatic cancer cell, Pk4A. Nature of the experiment: Cell migration assay (Boyden chambers), Pk4A cells. To be noted: versus ACm/PAP+ media, AG490 30 μM, 1 hr 45 min, P<0.05, FIG. 2E. The method, then: (§1) Cancer cell migration was studied using PKA4 and PANC-1 cell lines under different media (medium with or without recombinant PAP/REG3A or conditioned medium from acinar cells) on Boyden chambers. Culture inserts from BD Biosciences (353097, Le pont le Claix, FR), with a porous membrane of […], were coated with a mix made of gelatin 0.1% from Sigma-Aldrich (G1890, St Quentin, FR) and fibronectin 10 μg/mL from Sigma-Aldrich (F0895, St Quentin, FR) then seeded with PK4A or PANC-1 cells (100 0000 or 75 000 cells respectively per insert) and placed into wells containing culture media (with or without recombinant PAP/REG3A). PAP/REG3A or […] were used from 0 to 500 ng/mL. Migration was performed for 4 hrs for medium with or without recombinant PAP/REG3A or β and for 1 hr 45 min for conditioned medium from acinar cells. After cleaning and briefly staining inserts with coomassie blue, migration was assessed by counting (Image J software) the number of colored cells in 8-16 high-power fields (magnification ×10).

The subject of experiment [2] is Human pancreatic cancer cell, Panc-1. Nature of the experiment: Cell migration assay (Boyden chambers), Panc-1 cells. As to conditions: 100 ng/mL PAP/REG3A recombinant protein, AG490 at 30 μM, P<0.05, FIG. 2C. Here is the method:
as §1

The subject of experiment [3] is Mouse pancreatic cancer cell, Pk4A. Description: Cell invasion assay (matrigel Boyden chambers), PK4A cells. To be noted: PAP/REG3β 500 ng/mL, AG490 30 μmol/L, 24 hrs, P<0.05, FIG. 2D. The method, then: Cancer cell invasion was studied using PKA4 cells on Boyden chambers according to manufacturer's protocol (354480, Corning Lifesciences, Corning, N.Y., USA). Mouse recombinant PAP/REG3β was used at 500 ng/mL and AG490 at 30 μmol/L. Culture inserts were pre-coated with matrigel matrix then seeded with PK4A (100 0000 cells per insert) and placed into wells containing the medium. Cell counting was measured after 24 hrs of incubation. After cleaning and briefly staining inserts with coomassie blue, invasion was assessed by counting (Image J software) the number of colored cells in 8-16 high-power fields (magnification ×10).

For experiment [4], the system named is Pk4A cells. Description: Ex vivo peri-neural invasion assay (mouse sciatic nerve co-cultured with cancer cells). The method, then:
The day before the experiment 125,000 PK4A cells are seeded in 24 well plates in DMEM supplemented with 10% FBS and 1% antibiotic/antimycotic. 24 hrs after inhibitors (AG490 at 30 μmol/L or SC144 at 2 μmol/L) were added for 2 h. […] A mouse sciatic nerve section (5 mm) is placed in every well and cultured for 48 hrs then nerve sections are fixed 24 hrs in 4% formaldehyde and embedded in paraffin for immunohistochemistry study. Nerve sections from each condition are cut to make 4 μm sections from 2 different depths spaced by 50 μm and fixed on slides. Slides are processed for cytokeratin immunostaining by IHC as mentioned above. Cells stained with cytokeratine inside or in contact with nerve are recorded (Image J software).
Using human PDA slides, we observed that PAP/REG3A staining is associated with nerve density (Data not shown). Indeed, nerve fibers are mainly present in tissues areas where PAP/REG3A is strongly expressed. […] To further deepen the suspected role of PAP/REG3A as favoring PNI, we designed a specific ex-vivo experiment. Such experiment was done using mouse sciatic nerve fibers that we incubated with Pk4A cells+/−PAP/REG3β mouse recombinant protein (Data not shown). […]

In the case of `N#C/C(=C\c1ccc(O)c(O)c1)C(=O)NCc1ccccc1` [AG490], in experiment [1], the “change of the ACm/PAP+-induced increase of Pk4A migration” value is on record as “significantly reduced”. Besides, the “effect of inhibitor on PAP/REG3A-induced Panc-1 migration” value in experiment [2] is “impair PAP/REG3A effect on Panc-1 migration”. In experiment [3], the “effect of inhibitor on PAP/REG3β-induced invasion” value is listed as “inhibited”. Besides, the “effect of inhibitor on PAP/REG3β-induced nerve fibers invasion by pancreatic cancer cells” value in experiment [4] (PAP/REG3β 500 ng/mL, AG490 30 μmol/L, FIG. 3A) is reported as “impairs significantly”.

With `O=C(NNc1nc2cc(F)ccc2n2cccc12)c1cnccn1` [SC144], the “PNI relative to acinar cell media containing PAP/REG3β (ACm/PAP+)” value in experiment [4] (Pk4A with nerve fibers and acinar cell media, SC144 2 μmol/L, P<0.05, FIG. 3B) is given as “drastically reduced”.
